Reference: the NIST ThermoML archive (doi:10.1021/acs.jced.9b00011)
Numbers after ± are expanded uncertainties.

Columns and labels:
[1] = Crystal; DSC
[2] = Molar enthalpy of transition or fusion; settings: Crystal; DSC

| Compound | Triple point temperature [1] [K] | Molar enthalpy of transition or fusion [2] [kcal/mol] |
| --- | --- | --- |
| COc1cc(Cl)c(OC)cc1N [4-chloro-2,5-dimethoxyaniline] | 389.38 ± 3.7 | 5.88 ± 0.908 |
| COc1ccc(OC)c(N)c1 [2,5-dimethoxyaniline] | 352.56 ± 2.3 | 5.55 ± 1.1 |
